Measurements taken from US20100267753A1, “METHODS OF TREATING DISORDERS ASSOCIATED WITH PROTEIN KINASE CK2 ACTIVITY” (priority 2009, published 2010).
“And” between values parts separate entries of the source, which are not always exact repeats. Identical values can stand only once. Like-named read-outs stand apart in the source and are kept apart here.

Tests used:
[1] = system: fresh human PBMCs; assay: PBMC assay, host cell cytotoxicity; type: cell-based; details: for CC50: PBMCs, read-out: TC50 (the source's name)
[2] = system: 92HT599 (CXCR4-tropic HIV-1 Subtype B virus); assay: PBMC assay, HIV-1 92HT599; type: cell-based; details: Virus 92HT599, PBMCs
Method: (§1) Acute infection of HIV-1 isolates (CXCR4-tropic HIV-1 Subtype B and CCR5-tropic HIV-1 Subtype) using fresh human PBMCs from multiple donors (PMA and IL-2 stimulated). Antiviral activity determined as a reduction in reverse transcriptase after 7-day incubation.
(§2) TI=TC/IC; also referred to as Therapeutic Index values (TI) or Antiviral Index (AI)
(§3) Antiviral activity was determined as a reduction in reverse transcriptase after 7-day incubation. AZT, a nucleoside analog reverse transcriptase inhibitor, was used as the positive control for the assay.
(§4) 92HT599 is a CXCR4-tropic HIV-1 Subtype B virus. 91US005 is CCR5-tropic HIV-1 Subtype B virus.

[3] = system: eight CCR5-tropic HIV-1 clinical isolates; assay: CCR5-tropic HIV-1 clinical isolates in fresh human PBMCs; type: cell-based; details: FIG. 5, fresh human PBMCs
[4] = system: 91US005 (CCR5-tropic HIV-1 Subtype B virus); assay: PBMC assay, HIV-1 91US005; type: cell-based; details: Virus 91US005, PBMCs
Method: as §1, §2, §3, §4

[5] = system: HIV-1; assay: U1 latent infection assay, antiviral (reverse transcriptase); type: cell-based; details: U1 latent/induced
Method: Histocytic leukemia cell line U937, latently infected with HIV-1, are treated with TNFα to induce virus expression in the presence of test compound. Antiviral activity is determined as a reduction in reverse transcriptase after 72 hr incubation.
as §2
The histocytic leukemia cell line U937, latently infected with HIV-1, was treated with TNFα to induce virus expression in the presence of test compound. Antiviral activity was determined as a reduction in reverse transcriptase after 72 hr incubation. Temacrazine, an inhibitor of HIV transcription initiation, was used as the positive control for the assay.

[6] = system: U937, latently infected with HIV-1 (U1 cells); assay: U1 latent infection assay, host cell cytotoxicity; type: cell-based; details: U1 latent/induced, 72 hr; read-out: TC50 (the source's name)
[7] = Pharmacokinetics in mouse (IV bolus or oral dose); type: in vivo; details: mice; for Cmax: read-out: Cmax-obs; for half-life: read-out: t1/2 (converted)
Method: The pharmacokinetics properties of drugs were investigated in three species, following an intravenous (IV) bolus or oral (PO) dose of Compound K at the dosages indicated in the chart. Blood samples were collected at predetermined times and the plasma separated. Plasma was separated from the blood samples collected at 5, 15 and 30 minutes and 1, 2, 4, 8 and 24 hours post-dose.
Drug levels were quantified by the LC/MS/MS method described below. Noncompartmental pharmacokinetic analysis was applied for intravenous administration. […] The terminal t1/2 and C0 were calculated using the last three and the first three data points, respectively
Bioanalysis was performed using a Quattro Micro LC/MS/MS instrument in the MRM detection mode, with an internal standard (1S). Briefly, 15 μL plasma samples were prepared for analysis using protein precipitation with 120 μL of acetonitrile. The supernatants were transferred into a 96 well plate and subjected to LC-MS/MS analysis using a Phenomenex Polar-RP HPLC column. The mobile phases were 10 mM NH4HCO3 in water (Solution-A) and 10 mM NH4HCO3 in methanol (Solution-B). The column was initially equilibrated with 25% Solution-B and followed with 100% Solution B over 5 minutes. […] Quantitation of the analytes was performed in the batch mode with two bracketing calibration curves according to the bioanalytical sample list.

[8] = PBMC assay, host cell cytotoxicity; type: cell-based, human; details: human; PBMCs; read-out: TC50
[9] = U1 latent infection assay, host cell cytotoxicity; type: cell-based; details: human, U1 latent/induced, read-out: TC50
[10] = system: formalin-induced persistent pain; assay: Formalin-induced persistent pain model (flinching); type: in vivo, ICR mice; details: 3 mg/kg, subcutaneously injected, positive control
Method: See Hunskaar, et al., “The formalin test in mice: Dissociation between inflammatory and non-inflammatory pain,” Pain, vol. […] 89, 53-63 (2000). These tests were conducted with ICR mice, in accordance with guidelines established by the International Association for the Study of Pain. Compounds of the invention were used as solutions of about 3-20 mg/mL in aqueous solution at about pH 8. […] The test animals were monitored for at least 40 minutes, during which time the number of flinches occurring during each 5-minute period were observed and recorded. A cohort of 12 animals were used for each dose level of each compound tested.
The compounds were administered orally in a single dose, of 30, 100, and 200 mg/kg, one hour prior to injection of formalin Pain response was measured by flinching frequency.

[11] = system: CFA-induced thermal hyperalgesia; assay: CFA-induced thermal hyperalgesia model (Hargreaves); type: in vivo, ICR mice; details: single intraperitoneal dose 50 mg/kg; 1, 2, and 4 hours after administration
Method: The observations of pain responses were done blindly.
[…] On day 4, test subjects received a single injection of CFA (20 microliters) subcutaneously in the plantar surface of the left rear paw. CFA was injected subcutaneously into the plantar surface of the left hind paw of each test subject, under isoflurane anesthesia. […] On day 5, thermal responses were measured prior to treatment with the compound and again 1, 2, and 4 hours after treatment with […]. Withdrawal latencies were measured in response to thermal stimulus by the Hargreaves method. Naproxen was used as a positive control.

[12] = TNFα, reverse transcriptase after 72 hr
[13] = Human immunodeficiency virus 1, PBMC, 168 h, 7-day incubation
[14] = Human immunodeficiency virus 1, PBMC
[15] = Human immunodeficiency virus 1, 72 h, 72 hr, positive control

For `Cc1cn([C@H]2C[C@H](N=[N+]=[N-])[C@@H](CO)O2)c(=O)[nH]c1=O` [AZT, reference compound], the CC50 ([1]; positive control) was over 1 µM, the “TI (TC50/IC50)” value [2] was over 665 and the IC50 ([2]; positive control) was 1.5 nM. For the same molecule, the IC90 ([2]; positive control) was 0.00758 µM, the “HIV-1 93TH073 Clade E replication” value [3] was “inhibition of HIV-1 93TH073 Clade E replication” and the “TI (TC50/IC50)” value [4] was over 611. The IC50 ([4]; positive control) was 1.64 nM and the IC90 ([4]; positive control) was 6.86 nM.
For `C#Cc1cccc(Nc2nc3cc(C(=O)[O-])ccc3c3cncnc23)c1.[Na+]` [Compound 1 Na], the “TI (TC50/IC50)” value [5] was 87.3, the IC90 ([5]; 72 hr) was 9.08 µM and the IC50 [5, 12] was 200 nM. For the same molecule, the CC50 [1] was 3.53 µM, the IC90 [2] was 2.77 µM and the “TI (TC50/IC50)” value [2] was 3.07. The IC50 ([2]; 7-day incubation) was 1150 nM, the IC90 [4] was 1410 nM and the “TI (TC50/IC50)” value [4] was 35.8. The IC50 ([4]; 7-day incubation) was 100 nM and the CC50 [6] was 17.1 µM.
With `C#Cc1cccc(Nc2nc3cc(C(=O)O)ccc3c3cncnc23)c1` [Compound 1, 5-(3-ethynylphenylamino)pyrimido[4,5-c]quinoline-8-carboxylic acid] the CLs ([7]; IV 5.4 mg/kg) was 0.317 L/kg/h, the Cp0-exp ([7]; IV 5.4 mg/kg) was 29442.03 ng/mL and the Kel ([7]; IV 5.4 mg/kg) was 0.0678 h⁻¹. The “F(0-24 h)” value ([7]; PO 10.8 mg/kg) was 7.2%, the “F(0-Inf)” value ([7]; PO 10.8 mg/kg) was 11.0% and the Kel ([7]; PO 10.8 mg/kg) was 0.0323 h⁻¹. The AUC(0-t) ([7]; mouse, plasma, iv, 5.4 mg/kg, AUC(0-8 h), IV 5.4 mg/kg) was 11200 ng·h/mL, the AUC(0-t) ([7]; mouse, plasma, iv, 5.4 mg/kg, IV 5.4 mg/kg, read-out: AUC(0-24 h)) was 15300 ng·h/mL and the AUC(0-t) ([7]; mouse, plasma, po, 10.8 mg/kg, AUC(0-8 h), PO 10.8 mg/kg) was 1050 ng·h/mL. The AUC(0-t) ([7]; mouse, plasma, po, 10.8 mg/kg, PO 10.8 mg/kg, read-out: AUC(0-24 h)) was 2210 ng·h/mL, the AUC(0-inf) ([7]; mouse, plasma, IV 5.4 mg/kg) was 17000 ng·h/mL and the Cmax ([7]; mouse, plasma, IV 5.4 mg/kg) was 21800 ng/mL. For the same molecule, the Vd ([7]; mouse, plasma, IV 5.4 mg/kg, read-out: Vd) was 4.67 L/kg, the half-life ([7]; mouse, plasma, IV 5.4 mg/kg) was 613 min and the AUC(0-inf) ([7]; mouse, plasma, PO 10.8 mg/kg) was 3760 ng·h/mL. The Tmax ([7]; mouse, plasma, PO 10.8 mg/kg) was 15 min, the Cmax ([7]; mouse, plasma, PO 10.8 mg/kg) was 800 ng/mL and the half-life ([7]; mouse, plasma, PO 10.8 mg/kg) was 1290 min.
For `O=C([O-])c1ccc2c(c1)nc(Nc1cccc(C(F)(F)F)c1)c1nc(NC3CC3)ncc12.[Na+]` [Compound 2 Na], the “TI (TC50/IC50)” value [5] was >30.9 and >30.7, the IC90 ([5]; 72 hr) was over 100 µM and the IC50 [5, 12] was 3240 nM and 3260 nM. For the same molecule, the CC50 [1] was 12 µM, the IC90 [2] was 20.6 µM and the “TI (TC50/IC50)” value [2] was 2.65. The IC50 ([2]; 7-day incubation) was 4520 nM, the IC90 [4] was 3770 nM and the “TI (TC50/IC50)” value [4] was 59.6. It also gave an IC50 ([4]; 7-day incubation) of 200 nM and a CC50 [6] of over 100 µM.
With `O=C(O)c1ccc2c(c1)nc(Nc1cccc(C(F)(F)F)c1)c1nc(NC3CC3)ncc12` [Compound 2] the “cytotoxicity in PBMC's” value [1] was “minimal cytotoxicity”.
For `O=C(O)c1ccc2c(c1)nc(Nc1cccc(Cl)c1)c1ccncc12` [Compound K Na], the IC90 ([5]; Human immunodeficiency virus 1, 72 h, 72 hr) was 18 µM, the IC50 ([5]; Human immunodeficiency virus 1, 72 h, TNFα, reverse transcriptase after 72 hr) was 700 nM and the “TI (TC50/IC50)” value [5] was 15.2. The CC50 at 7 days [8] was 7.61 µM, the IC50 [2, 13] was 3490 nM and the IC90 [2, 14] was 8.25 µM. The “TI (TC50/IC50)” value [2] was 2.18, the IC50 [4, 13] was 1070 nM and the IC90 [4, 14] was 3050 nM. The “TI (TC50/IC50)” value [4] was 7.13 and the CC50 at 72 h [9] was 10.6 µM.
In the case of `O=c1c2ccccc2n2nnc3ccc(NCCCN4CCN(CCCNc5ccc6nnn7c8ccccc8c(=O)c5c67)CC4)c1c32` [Temacrazine, reference compound], the IC50 [5, 15] is reported as 3.56 nM, the IC90 [5, 15] is reported as 0.0179 µM and the “TI (TC50/IC50)” value [5] is reported as >28.1 and >27.4. For the same molecule, the IC50 ([5]; 72 hr, positive control) was 3.64 nM, the IC90 ([5]; 72 hr, positive control) was 0.0169 µM and the CC50 at 72 h ([9]; positive control) was over 0.1 µM.
In the case of `CN1CC[C@]23c4c5ccc(O)c4O[C@H]2[C@@H](O)C=C[C@H]3[C@H]1C5` [morphine, reference compound], the “formalin-induced flinching, first phase” value [10] is reported as “reduced formalin-induced flinching” and the “formalin-induced flinching, second phase” value [10] is reported as “reduced formalin-induced flinching”.
In the case of `COc1ccc2cc([C@H](C)C(=O)O)ccc2c1` [naproxen, reference compound], the “effect on CFA-induced thermal hyperalgesia” value [11] is reported as “significantly reversed the CFA-induced thermal hyperalgesia”.
